Laboratory results: US4990613A, “(1R,5S,6S)-2-[(6,7-dih ydro-5H-pyrazolo[1,2-a][1,2,4]triazolium-6-yl)]thio-6-[R-1-hydroxyethyl]- 1-methyl-carbapenem-3-carboxylate and intermediate therefor” (Lederle (Japan), Ltd., priority 1987, dated 1991)
Converted amounts (≈) assume the structure as drawn. Read-outs that look alike come from different tables or passages of the source.

Key:
[1] = tested on: Escherichia coli K12 C600; assay: Antibacterial test, agar plate dilution method; format: cell-based; conditions: Escherichia coli, K12C600; 37° C., 18 hours, MH agar; read-out: MIC
[2] = tested on: Serratia marcescens IAM1184; assay: Antibacterial test, agar plate dilution method; conditions: Serratia marcescens, IAM1184, 18 h
[3] = tested on: Morganella morganii IFO3848; assay: Antibacterial test, agar plate dilution method; conditions: Morganella morganii, IFO3848, 18 h
[4] = tested on: Salmonella typhi 901; assay: Antibacterial test, agar plate dilution method; format: cell-based; conditions: Salmonella enterica, TYPHI, 18 h
[5] = tested on: Salmonella schottmuelleri 8006; assay: Antibacterial test, agar plate dilution method; conditions: Salmonella, 8006, 18 h
[6] = tested on: Citrobactor freundii GN 346; assay: Antibacterial activity against clinically isolated β-lactamase producing strains; format: cell-based; conditions: cephalosporinase producing strain, 18 to 20 hours; read-out: MIC
Description: (§1) A solution of a cephalosporinase producing strain stored by Episome Research Institute, which was prepared by incubating the strain in a sensitivity test broth (STB; product of Nissui K.K.) for 18 hours, was diluted with a fresh STB solution to contain 10^5 cells per milliliter and the diluted solution was then inoculated as spots with a microplanter on a sensitivity disk agar-N (SDA; product of Nissui K.K.) containing a test compound. The disk agar was then incubated for 18 to 20 hours. A minimum inhibitory concentration was determined as a minimum concentration in which the test microorganism had no longer grown after a 18 to 20 hour incubation.

[7] = tested on: Providencia rettgeri GN 5284; assay: as above; format: cell-based; conditions: Providencia rettgeri, GN5284; cephalosporinase producing strain, 18 to 20 hours; read-out: MIC
Description: as §1

[8] = tested on: Proteus vulgaris GN 4413; assay: as above; format: cell-based; conditions: Proteus vulgaris, GN4413
Description: as §1

[9] = tested on: Enterobacter cloacae GN 5797; assay: as above; format: cell-based; conditions: Enterobacter cloacae, GN5797; cephalosporinase producing strain, 18 to 20 hours; read-out: MIC
Description: as §1

[10] = tested on: Serratia marcescens L-82; assay: as above; format: cell-based; conditions: Serratia marcescens, L82; cephalosporinase producing strain, 18 to 20 hours; read-out: MIC
Description: as §1

[11] = tested on: Serratia marcescens GN 10857; assay: as above; format: cell-based; conditions: Serratia marcescens, GN10857
Description: as §1

[12] = tested on: Pseudomonas aeruginosa GN 10362; assay: as above; format: cell-based; conditions: Pseudomonas aeruginosa, GN10362
Description: as §1

[13] = tested on: Escherichia coli No. 1501; assay: as above; format: cell-based; conditions: Escherichia coli, NO.1501; cephalosporinase producing strain, 18 to 20 hours; read-out: MIC
Description: as §1

[14] = tested on: Proteus morganii GN 5375; assay: as above; format: cell-based; conditions: Morganella morganii, GN5375
Description: as §1

[15] = tested on: Serratia marcescens L-65; assay: as above; format: cell-based; conditions: Serratia marcescens, L65; cephalosporinase producing strain, 18 to 20 hours; read-out: MIC
Description: as §1

[16] = tested on: Citrobactor freundii GN 7391; assay: as above; format: cell-based; conditions: cephalosporinase producing strain, 18 to 20 hours; read-out: MIC
Description: as §1

[17] = tested on: Proteus morganii GN 5407; assay: as above; format: cell-based; conditions: Morganella morganii, GN5407
Description: as §1

[18] = tested on: Proteus morganii GN 5307; assay: as above; format: cell-based; conditions: Morganella morganii, GN5307; cephalosporinase producing strain, 18 to 20 hours; read-out: MIC
Description: as §1

[19] = tested on: Proteus vulgaris GN 7919; assay: as above; format: cell-based; conditions: Proteus vulgaris, GN7919
Description: as §1

[20] = tested on: Providencia rettgeri GN 4430; assay: as above; format: cell-based; conditions: Providencia rettgeri, GN4430; cephalosporinase producing strain, 18 to 20 hours; read-out: MIC
Description: as §1

[21] = tested on: Klebsiella oxytoca GN 10650; assay: as above; format: cell-based; conditions: Klebsiella oxytoca, GN10650; cephalosporinase producing strain, 18 to 20 hours; read-out: MIC
Description: as §1

[22] = tested on: Escherichia coli No. 96; assay: as above; format: cell-based; conditions: Escherichia coli, NO.96; cephalosporinase producing strain, 18 to 20 hours; read-out: MIC
Description: as §1

[23] = tested on: Pseudomonas cepacia GN 11164; assay: as above; format: cell-based; conditions: Burkholderia cepacia, GN11164
Description: as §1

[24] = tested on: Salmonella paratyphi 1015; assay: Antibacterial test, agar plate dilution method; format: cell-based; conditions: Salmonella enterica, PARATYPHI, 18 h
[25] = tested on: Streptococcus pyogenes Cook; assay: Antibacterial test, agar plate dilution method; conditions: Streptococcus pyogenes, 18 h
[26] = tested on: Salmonella typhimurium IID971; assay: Antibacterial test, agar plate dilution method; conditions: Salmonella enterica, 18 h
[27] = tested on: Pseudomonas aeruginosa IFO 3445; assay: Antibacterial test, agar plate dilution method; conditions: Pseudomonas aeruginosa, IFO3445, 18 h
[28] = tested on: Enterobacter cloacae 963; assay: Antibacterial test, agar plate dilution method; conditions: Enterobacter cloacae, 963, 18 h
[29] = tested on: Bacillus subtilis ATCC6633; assay: Antibacterial test, agar plate dilution method; conditions: Bacillus subtilis, ATCC6633, 18 h
[30] = tested on: Pseudomonas aeruginosa NCTC 10490; assay: Antibacterial test, agar plate dilution method; conditions: Pseudomonas aeruginosa, NCTC10490, 18 h
[31] = tested on: Klebsiella pneumoniae PCI-602; assay: Antibacterial test, agar plate dilution method; conditions: Klebsiella pneumoniae, PCI602, 18 h
[32] = cephalosporinase producing strain, 18 to 20 hours, read-out: MIC

Row | Compound | MIC [1] [µg/mL] | MIC [2] [µg/mL] | MIC [3] [µg/mL] | MIC [4] [µg/mL] | MIC [5] [µg/mL] | MIC [6] [µg/mL] | MIC [7] [µg/mL] | MIC [9] [µg/mL] | MIC [10] [µg/mL] | MIC [13] [µg/mL] | MIC [15] [µg/mL] | MIC [16] [µg/mL] | MIC [18] [µg/mL] | MIC [20] [µg/mL] | MIC [21] [µg/mL] | MIC [22] [µg/mL] | MIC [24] [µg/mL] | MIC [25] [µg/mL] | MIC [26] [µg/mL] | MIC [27] [µg/mL] | further results
1 | Cc1nnc(SCC2=C(C(=O)O)N3C(=O)[C@@H](NC(=O)Cn4cnnn4)[C@H]3SC2)s1 [CEZ] | 0.78 (≈ 1.72 µM) | > 100 | 25 (≈ 55 µM) | 0.78 (≈ 1.72 µM) | 0.78 (≈ 1.72 µM) | 25 (≈ 55 µM) | 0.2 (≈ 0.44 µM) | 0.39 (≈ 0.858 µM) | 0.39 (≈ 0.858 µM) | 0.2 (≈ 0.44 µM) | 0.2 (≈ 0.44 µM) | > 100 | 0.2 (≈ 0.44 µM) | 0.2 (≈ 0.44 µM) | 0.2 (≈ 0.44 µM) | 0.78 (≈ 1.72 µM) | 1.56 (≈ 3.43 µM) | 0.1 (≈ 0.22 µM) | 0.78 (≈ 1.72 µM) | > 100 | MIC [8, 32]: 0.2 µg/mL (≈ 0.44 µM); MIC [11, 32]: 0.78 µg/mL (≈ 1.72 µM); MIC [12]: 3.13 µg/mL (≈ 6.89 µM); MIC [14, 32]: 0.2 µg/mL (≈ 0.44 µM); MIC [17, 32]: 0.39 µg/mL (≈ 0.858 µM); MIC [19]: 3.13 µg/mL (≈ 6.89 µM); MIC [23, 32]: 0.78 µg/mL (≈ 1.72 µM); MIC [28]: > 100 µg/mL; MIC [29]: 0.1 µg/mL (≈ 0.22 µM); MIC [30]: > 100 µg/mL; MIC [31]: 0.78 µg/mL (≈ 1.72 µM)
2 | C[C@@H](O)[C@H]1C(=O)N2C(C(=O)O)=C(SCCN=CN)C[C@H]12 [Imipenem] | 3.13 (≈ 10.5 µM) | 0.39 (≈ 1.3 µM) | 0.39 (≈ 1.3 µM) | 0.1 (≈ 0.334 µM) | 0.78 (≈ 2.61 µM) | 0.39 (≈ 1.3 µM) | 0.39 (≈ 1.3 µM) | 0.39 (≈ 1.3 µM) | 0.2 (≈ 0.668 µM) | 0.1 (≈ 0.334 µM) | 0.39 (≈ 1.3 µM) | 0.78 (≈ 2.61 µM) | 0.78 (≈ 2.61 µM) | 0.39 (≈ 1.3 µM) | 0.2 (≈ 0.668 µM) | 0.1 (≈ 0.334 µM) | 1.56 (≈ 5.21 µM) | < 0.006 | 0.39 (≈ 1.3 µM) | 0.78 (≈ 2.61 µM) | MIC [8]: 6.25 µg/mL (≈ 20.9 µM); MIC [11]: 3.13 µg/mL (≈ 10.5 µM); MIC [12, 32]: 0.78 µg/mL (≈ 2.61 µM); MIC [14]: 3.13 µg/mL (≈ 10.5 µM); MIC [17]: 3.13 µg/mL (≈ 10.5 µM); MIC [19, 32]: 0.39 µg/mL (≈ 1.3 µM); MIC [23]: 3.13 µg/mL (≈ 10.5 µM); MIC [28]: 0.2 µg/mL (≈ 0.668 µM); MIC [29]: 0.025 µg/mL (≈ 0.0835 µM); MIC [30]: 0.78 µg/mL (≈ 2.61 µM); MIC [31]: 0.39 µg/mL (≈ 1.3 µM)
